From USRE29226E, “Preparation of carboxylate and sulfonate salts of 1-cis-(3-chloro-2-propenyl)-3,5,7-triaza-1-azoniatricyclo(3.3.1.1^3, 7)decane-II” (The Dow Chemical Company, priority 1976, dated 1977)
Where a name gives a salt, the structure may show the parent alone. Read-outs that look alike come from different tables or passages of the source.

How the values were obtained:
Assay type in all cases: cell-based
S. aureus = experiment: conventional agar dilution test, S. aureus; conditions: Sa = S. aureus, complete growth inhibition
Description: (§1) In representative operations, the products of the invention when tested for antimicrobial activity using conventional agar dilution tests gave complete growth inhibition against the following organisms at the indicated concentrations in parts per million:
(§2) Minimum Inhibitory Concentration, ppm

S. typhosa = experiment: conventional agar dilution test, S. typhosa; conditions: St = S. typhosa, complete growth inhibition
Description: as §1, §2

A. aerogenes = experiment: conventional agar dilution test, A. aerogenes; conditions: Aa = A. aerogenes, complete growth inhibition
Description: as §1, §2

P. aeruginosa = experiment: conventional agar dilution test, P. aeruginosa; conditions: Pa = P. aeruginosa, complete growth inhibition; for MIC: Pseudomonas aeruginosa, read-out: Minimum Inhibitory Concentration
Description: as §1, §2

C. pelliculosa = experiment: conventional agar dilution test, C. pelliculosa; conditions: Cp = C. pelliculosa
Description: as §1, §2

S. cerevisiae = experiment: conventional agar dilution test, S. cerevisiae; conditions: Sc = S. cerevisiae; for MIC / Minimum Inhibitory Concentration: complete growth inhibition, agar dilution; for MIC: read-out: Minimum Inhibitory Concentration
Description: as §1, §2

A. niger = experiment: conventional agar dilution test, A. niger; conditions: An = A. niger, complete growth inhibition; for MIC: Aspergillus niger, read-out: Minimum Inhibitory Concentration
Description: as §1, §2

P. chrysogenum = experiment: conventional agar dilution test, P. chrysogenum; conditions: Pen = P. chrysogenum
Description: as §1, §2

[1] = complete growth inhibition, agar dilution

## Cl/C=C\C[N+]12CN3CN(CN(C3)C1)C2.[Cl-] [Cis, cis-1-(3-chloro-2-propenyl)-3,5,7-triaza-1-azoniatricyclo(3.3.1.1^3,7)decane chloride, reference compound]
S. aureus; Staphylococcus aureus, read-out: Minimum Inhibitory Concentration
  MIC: 50 mg/L
S. typhosa; read-out: Minimum Inhibitory Concentration
  MIC: 25 mg/L
A. aerogenes; Klebsiella aerogenes, read-out: Minimum Inhibitory Concentration
  MIC: 50 mg/L
P. aeruginosa
  MIC: 100 mg/L
C. pelliculosa
  inhibition at 500 ppm: ± (50% inhibition at 500 ppm)
S. cerevisiae; Saccharomyces cerevisiae
  MIC: 250 mg/L
A. niger
  MIC: > 500 mg/L
P. chrysogenum; Penicillium chrysogenum, complete growth inhibition, agar dilution, read-out: Minimum Inhibitory Concentration
  MIC: 250 mg/L

## Cl/C=C\C[N+]12CN3CN(CN(C3)C1)C2 [Example 1, Mono-benzoate Salt of Cis]
S. aureus
  Minimum Inhibitory Concentration: 100 ppm
S. typhosa
  Minimum Inhibitory Concentration: 50 ppm
A. aerogenes
  Minimum Inhibitory Concentration: 100 ppm
P. aeruginosa
  MIC: 250 mg/L
C. pelliculosa; Hansenula anomala, complete growth inhibition, agar dilution, read-out: Minimum Inhibitory Concentration
  MIC: > 500 mg/L
S. cerevisiae; Saccharomyces cerevisiae
  MIC: > 500 mg/L
A. niger
  MIC: > 500 mg/L
P. chrysogenum; [1]
  Minimum Inhibitory Concentration: 500 ppm

## Cl/C=C\C[N+]12CN3CN(CN(C3)C1)C2 [Example 2, p-Toluene Sulfonate Mono-Salt of Cis]
S. aureus
  Minimum Inhibitory Concentration: 250 ppm
S. typhosa
  Minimum Inhibitory Concentration: 50 ppm
A. aerogenes
  Minimum Inhibitory Concentration: 100 ppm
P. aeruginosa
  Minimum Inhibitory Concentration: 250 ppm
C. pelliculosa
  inhibition at 500 ppm: ± (50% inhibition at 500 ppm)
S. cerevisiae; Saccharomyces cerevisiae, read-out: inhibition at 500 ppm
  inhibition at 500 ppm: 50%
A. niger
  Minimum Inhibitory Concentration: > 500 ppm
P. chrysogenum; [1]
  Minimum Inhibitory Concentration: 500 ppm

## Cl/C=C\C[N+]12CN3CN(CN(C3)C1)C2 [Ia]
S. aureus
  Minimum Inhibitory Concentration: 100 ppm
S. typhosa
  Minimum Inhibitory Concentration: 50 ppm
A. aerogenes
  Minimum Inhibitory Concentration: 100 ppm
P. aeruginosa
  Minimum Inhibitory Concentration: 250 ppm
C. pelliculosa
  inhibition at 500 ppm: ± (50% inhibition at 500 ppm)
S. cerevisiae
  inhibition at 500 ppm: ± (50% inhibition at 500 ppm)
A. niger
  Minimum Inhibitory Concentration: > 500 ppm
P. chrysogenum; [1]
  Minimum Inhibitory Concentration: > 500 ppm

## Cl/C=C\C[N+]12CN3CN(CN(C3)C1)C2 [Ib]
S. aureus
  Minimum Inhibitory Concentration: 75 ppm
S. typhosa
  Minimum Inhibitory Concentration: 50 ppm
A. aerogenes
  Minimum Inhibitory Concentration: 75 ppm
P. aeruginosa
  Minimum Inhibitory Concentration: 250 ppm
C. pelliculosa
  inhibition at 500 ppm: .-+. (>90% inhibition at 500 ppm)
S. cerevisiae
  inhibition at 500 ppm: ± (50% inhibition at 500 ppm)
A. niger
  Minimum Inhibitory Concentration: > 500 ppm
P. chrysogenum; [1]
  Minimum Inhibitory Concentration: 500 ppm

## Cl/C=C\C[N+]12CN3CN(CN(C3)C1)C2 [Ic]
S. aureus
  Minimum Inhibitory Concentration: 100 ppm
S. typhosa
  Minimum Inhibitory Concentration: 100 ppm
A. aerogenes
  Minimum Inhibitory Concentration: 100 ppm
P. aeruginosa
  Minimum Inhibitory Concentration: 250 ppm
C. pelliculosa
  inhibition at 500 ppm: ± (50% inhibition at 500 ppm)
S. cerevisiae
  Minimum Inhibitory Concentration: 500 ppm
A. niger
  Minimum Inhibitory Concentration: > 500 ppm
P. chrysogenum; [1]
  Minimum Inhibitory Concentration: 500 ppm

## Cl/C=C\C[N+]12CN3CN(CN(C3)C1)C2 [Id]
S. aureus
  Minimum Inhibitory Concentration: 250 ppm
S. typhosa
  Minimum Inhibitory Concentration: 50 ppm
A. aerogenes
  Minimum Inhibitory Concentration: 250 ppm
P. aeruginosa
  Minimum Inhibitory Concentration: 250 ppm
C. pelliculosa
  inhibition at 500 ppm: .-+. (>90% inhibition at 500 ppm)
S. cerevisiae
  Minimum Inhibitory Concentration: 500 ppm
A. niger
  Minimum Inhibitory Concentration: > 500 ppm
P. chrysogenum; [1]
  Minimum Inhibitory Concentration: 500 ppm

## Cl/C=C\C[N+]12CN3CN(CN(C3)C1)C2 [Ie]
S. aureus
  Minimum Inhibitory Concentration: 75 ppm
S. typhosa
  Minimum Inhibitory Concentration: 25 ppm
A. aerogenes
  Minimum Inhibitory Concentration: 250 ppm
P. aeruginosa
  Minimum Inhibitory Concentration: 250 ppm
C. pelliculosa; [1]
  Minimum Inhibitory Concentration: > 500 ppm
S. cerevisiae
  Minimum Inhibitory Concentration: > 500 ppm
A. niger
  Minimum Inhibitory Concentration: > 500 ppm
P. chrysogenum; [1]
  Minimum Inhibitory Concentration: > 500 ppm

## Cl/C=C\C[N+]12CN3CN(CN(C3)C1)C2 [If]
S. aureus
  Minimum Inhibitory Concentration: 250 ppm
S. typhosa
  Minimum Inhibitory Concentration: 75 ppm
A. aerogenes
  Minimum Inhibitory Concentration: 250 ppm
P. aeruginosa
  Minimum Inhibitory Concentration: 250 ppm
C. pelliculosa; [1]
  Minimum Inhibitory Concentration: 250 ppm
S. cerevisiae
  Minimum Inhibitory Concentration: 500 ppm
A. niger
  Minimum Inhibitory Concentration: 250 ppm
P. chrysogenum; [1]
  Minimum Inhibitory Concentration: 100 ppm

## Cl/C=C\C[N+]12CN3CN(CN(C3)C1)C2 [Ig]
S. aureus
  Minimum Inhibitory Concentration: 50 ppm
S. typhosa
  Minimum Inhibitory Concentration: 50 ppm
A. aerogenes
  Minimum Inhibitory Concentration: 250 ppm
P. aeruginosa
  Minimum Inhibitory Concentration: 250 ppm
C. pelliculosa; [1]
  Minimum Inhibitory Concentration: > 500 ppm
S. cerevisiae
  Minimum Inhibitory Concentration: > 500 ppm
A. niger
  Minimum Inhibitory Concentration: > 500 ppm
P. chrysogenum; Penicillium chrysogenum, 500 ppm
  inhibition at 500 ppm: > 90%

## Cl/C=C\C[N+]12CN3CN(CN(C3)C1)C2 [Ih]
S. aureus
  Minimum Inhibitory Concentration: 250 ppm
S. typhosa
  Minimum Inhibitory Concentration: 75 ppm
A. aerogenes
  Minimum Inhibitory Concentration: 250 ppm
P. aeruginosa
  Minimum Inhibitory Concentration: 250 ppm
C. pelliculosa; [1]
  Minimum Inhibitory Concentration: > 500 ppm
S. cerevisiae
  Minimum Inhibitory Concentration: > 500 ppm
A. niger
  Minimum Inhibitory Concentration: > 500 ppm
P. chrysogenum; [1]
  Minimum Inhibitory Concentration: > 500 ppm

## Cl/C=C\C[N+]12CN3CN(CN(C3)C1)C2 [Ii]
S. aureus
  Minimum Inhibitory Concentration: 250 ppm
S. typhosa
  Minimum Inhibitory Concentration: 50 ppm
A. aerogenes
  Minimum Inhibitory Concentration: 250 ppm
P. aeruginosa
  Minimum Inhibitory Concentration: 250 ppm
C. pelliculosa; [1]
  Minimum Inhibitory Concentration: 250 ppm
S. cerevisiae
  Minimum Inhibitory Concentration: 500 ppm
A. niger
  Minimum Inhibitory Concentration: 500 ppm
P. chrysogenum; [1]
  Minimum Inhibitory Concentration: 100 ppm

## Cl/C=C\C[N+]12CN3CN(CN(C3)C1)C2 [Ij]
S. aureus
  Minimum Inhibitory Concentration: 250 ppm
S. typhosa
  Minimum Inhibitory Concentration: 75 ppm
A. aerogenes
  Minimum Inhibitory Concentration: 75 ppm
P. aeruginosa
  Minimum Inhibitory Concentration: 250 ppm
C. pelliculosa; [1]
  Minimum Inhibitory Concentration: 500 ppm
S. cerevisiae
  Minimum Inhibitory Concentration: 500 ppm
A. niger
  Minimum Inhibitory Concentration: 500 ppm
P. chrysogenum; [1]
  Minimum Inhibitory Concentration: 250 ppm
